The text below walks through data of patent US11506670B2, “Method of genome-wide direct identification of electrophile-sensing targets” (Cornell University, priority 2018, dated 2022).

The experiment has as its system Ube2V2 ubiquitination and cellular Ub pools. Briefly: Ubiquitination analysis by IP, K63-TUBE pulldown and western blot in HEK293T cells. The class given is cell-based, human. Here is the method:
Cells were lysed in 1×RIPA buffer containing in final concentrations 1× Protease inhibitor, 1 mM sodium orthovanadate and 1 mM PMSF, by rapid freeze-thaw (×3). Cell debris was removed and the supernatant was collected after centrifugation at 18,000×g for 20 min at 4° C. Protein concentration was determined using Bradford assay. 30-50 μg of total lysates were subjected to SDS-PAGE and the gel was transferred onto a PVDF membrane at 100 V for 1 h at 4° C. or at 40 V overnight at 4° C. Membrane was blocked with 10% milk and probed with various antibodies at the indicated dilutions (Table 4, above).
HEK 293T cells were seeded in 2×60 cm^2 plates. After the cells reached 60% confluence (˜18-24 h), the old media was replaced with 8 mL of fresh complete media. Cells were transfected with 7.5 μg of the designated Halo clone and 30 μL PEI (1 mg/mL) in 600 μL in Opti-MEM media for 24-36 h after which the cells were treated with 25 μM Ht-PreHNE for 2.5 h. Rinsing and light shining protocol were as described above. Cells were harvested, pooled, washed twice with chilled 1×DPBS and flash frozen. Cell lysis was performed in 100-200 μL per 1.5×10^6 cells of either: lysis buffer [containing in final concentrations 50 mM HEPES (pH 7.6), 150 mM NaCl, 1% Nonidet P-40 and 1× Roche cOmplete, mini, EDTA-free protease inhibitor cocktail] for Flag pull down; or RIPA buffer [containing in final concentrations 50 mM HEPES (pH 7.6), 150 mM NaCl, 1% Nonidet P-40, 0.1% SDS, 0.25% sodium deoxycholate, and 1× Roche cOmplete, mini, EDTA-free protease inhibitor cocktail] for HA pull down, followed by rapid freeze-thaw cycles (×3). Lysate was clarified by centrifugation at 18,000×g for 10 min at 4° C. Total protein concentration was determined using Bradford assay with BSA as standard. The lysate was subsequently diluted to 2 mg/mL with binding buffer containing in final concentrations 50 mM HEPES (pH 7.6), 150 mM NaCl, 1× Roche cOmplete, mini, EDTA-free protease inhibitor cocktail, and 0.1% Tween-20. This diluted lysate was subjected to either 50-100 μL bed volume of ANTI-FLAG® M2 affinity gel (A2220, Sigma) or monoclonal anti-HA-agarose (clone HA-7, A2095, Sigma) that had been pre-equilibrated with the binding buffer above. The sample was incubated with beads for 2-3 h at 4° C. by end-over-end rotation after which time the supernatant was removed post-centrifugation at 1000×g (anti-FLAG pull down) or 5000×g (anti-HA pull down) for 3 min. The beads were washed three times at 4° C. with 500 μL wash buffer containing in final concentrations 50 mM HEPES (pH 7.6), 150 mM NaCl, 1× Roche cOmplete, mini, EDTA-free protease inhibitor cocktail, and 0.1% Tween-20, using end-over-end rotation over 10 min during each wash. The bound protein was eluted by either incubating with 0.15 mg/mL 3× flag peptide for 2 h at 4° C. (anti-Flag pull down) or by boiling the beads at 98° C. for 10 min with 30 μL of 3× Laemmeli dye containing 6% βME (anti-HA pull down). The sample was subjected to SDS-PAGE and transferred to a PVDF membrane for western blot analysis described above.
Cells were grown and transfected as described above. After T-REX™ delivery, cells were harvested and lysed in 100-200 μL (˜1.5×10^6 cells) of lysis buffer [containing in final concentrations 50 mM HEPES (pH 7.6), 300 nM Biotin K63-TUBE, 150 mM NaCl, 5 mM EDTA, 3 mM 1,10-phenanthroline, 5 mM NEM, 20 μM PR-619, 1% Nonidet P-40 and 1× Roche cOmplete, mini, EDTA-free protease inhibitor cocktail] according to manufactures' manual (Biotin K63 TUBE, Lifesensors). Lysate was clarified by centrifugation at 18,000×g for 10 min at 4° C. Total protein concentration was determined using Bradford assay using BSA as standard. […]

Turning to `CCCCCC(O)/C=C/C=O` (stereo not drawn) [HNE, 4-hydroxynonenal], under “HEK293T”, the “K63-linked total cellular Ub pools” value is “did not alter K63-linked total cellular Ub pools” and the “pan cellular poly-Ub-pools” value is “no effect”. In addition, the “K63-linked ubiquitination of Ube2V2 upon T-REX delivery” value (cells expressing wt-Ube2V2, not C69S) is reported as “significantly upregulated”.
